From patent publication US5741811A, “Polythiophene anti-tumor agents” (Purdue Research Foundation, priority 1996, dated 1998)

Key:
Assay in all cases: NCI human tumor cell line panel growth inhibition
Type in all cases: cell-based
[1] = test system: 786-0 renal cancer cells; conditions: read-out: Log10 GI50 (converted)
[2] = test system: HCT-15 colon cancer cells; conditions: Homo sapiens, read-out: Log10 GI50 (converted)
[3] = test system: ACHN renal cancer cells; conditions: read-out: Log10 GI50 (converted)
[4] = test system: HOP-62 lung cancer cells; conditions: Homo sapiens, read-out: Log10 GI50 (converted)
[5] = test system: SN12C renal cancer cells; conditions: read-out: Log10 GI50 (converted)
[6] = test system: IGROV-1 ovarian cancer cells; conditions: Homo sapiens, read-out: Log10 GI50 (converted)
[7] = test system: TK-10 renal cancer cells; conditions: Homo sapiens, read-out: Log10 GI50 (converted)
[8] = test system: M-14 melanoma cells; conditions: M14, read-out: Log10 GI50 (converted)
[9] = test system: MALME-3M melanoma cells; conditions: read-out: Log10 GI50 (converted)
[10] = test system: COLO-205 colon cancer cells; conditions: Homo sapiens; COLO-205, colon cancer; read-out: Log10 GI50 (converted)
[11] = test system: NCI-H226 lung cancer cells; conditions: Homo sapiens, read-out: Log10 GI50 (converted)
[12] = test system: NCI-H23 lung cancer cells; conditions: read-out: Log10 GI50 (converted)
[13] = test system: NCI-H460 lung cancer cells; conditions: Homo sapiens, read-out: Log10 GI50 (converted)
[14] = test system: HT29 colon cancer cells; conditions: Homo sapiens, HT-29, read-out: Log10 GI50 (converted)
[15] = test system: SW-620 colon cancer cells; conditions: Homo sapiens, read-out: Log10 GI50 (converted)
Description: (§1) The first screen measures the cytotoxicity against a panel of sixty different human tumor cell lines. This assay provides data regarding the general cytotoxicity of an individual compound.
(§2) The length of a bar is indicative of differential cytotoxicity against a specific type of tumor cells or tumor panels.
(§3) The antitumor cytotoxicity of the thiophene compounds tested in the first two in vitro assays was measured by a microculture assay using either 3-(4,5-dimethylthiazol-2-yl)-2,5-diphenyltetrazolium bromide (MTT) or sulforhodamine B (SRB). [M. R. Boyd in "Principles and Practices of Oncology," V. T. DeVita, Jr., S. Hellman and S. A. Rosenberg (Eds.), Vol. 3, PPO Updates, Number 10, 1989.] This assay has an advantage over in vivo assay in that results are obtained within a week as opposed to several months. The assay was carried out in 96-well microtiter plates. The MTT assay is based on the production of a dark blue formazan product by dehydrogenase in the mitochondria of live tumor cells after exposure to drug for 6 days [M. C. Alley, D. A. Scudiero, A. Monks, M. L. Hursey, M. J. Czerwinski, D. L. Fine, B. J. Abbott, J. G. Mayo, R. H. Shoemaker and M. R. Boyd, Cancer Res., 48, 589, 1988.] Thus, only live cells are stained and can be measured at 570 nm. The SRB assay is based on the binding of the anionic group to the basic amino acid residues of cellular proteins after exposure of tumor cells to drug for 2 days [P. Skehan, R. Storeng, D. Scudiero, A. Monks, J. McMahon, D. Vistica, J. T. Warren, H. Bohesch, S. Kenney and M. R. Boyd, J. Nat. Cancer Inst., 82, 1107, 1990.] Thus, the total protein (viability) can be measured at 564 nm.

[16] = test system: OVCAR-8 ovarian cancer cells; conditions: Homo sapiens, read-out: Log10 GI50 (converted)
Description: as §1, §2, §3

[17] = test system: SF-295 CNS cancer cells; conditions: read-out: Log10 GI50 (converted)
[18] = test system: U251 CNS cancer cells; conditions: Homo sapiens, U-251, read-out: Log10 GI50 (converted)
[19] = test system: MDA-MB-435 breast cancer cells; conditions: read-out: Log10 GI50 (converted)
Source text: (§4) The cytotoxic activity of the present polythiophene compounds have been measured utilizing three different assays or screens. The first screen measures the cytotoxicity against a panel of sixty different human tumor cell lines. This assay provides data regarding the general cytotoxicity of an individual compound. In particular this type of assay is useful in identifying compounds which have enhanced cytotoxic activity against slow growing tumors as compared to faster growing tumor cells such as leukemia tumor cell lines. The identification of such compounds is critical since previously identified antitumor agents have low cytotoxic activity against slower growing tumors. […] The specificity of a cytotoxic compound for tumor cell lines relative to normal cells is an important characteristic of an effective antitumor agent.
as §2, §3

[20] = test system: SK-MEL-5 melanoma cells; conditions: read-out: Log10 GI50 (converted)
Source text: as §4, §2, §3

[21] = test system: MDA-N breast cancer cells; conditions: read-out: Log10 GI50 (converted)
Source text: as §4, §2, §3

[22] = test system: PC-3 prostate cancer cells; conditions: read-out: Log10 GI50 (converted)
Source text: as §4, §2, §3

[23] = test system: SK-MEL-28 melanoma cells; conditions: read-out: Log10 GI50 (converted)
Source text: as §4, §2, §3

[24] = test system: HS 578T breast cancer cells; conditions: read-out: Log10 GI50 (converted)
Source text: as §4, §2, §3

[25] = test system: MCF7/ADR-RES breast cancer cells; conditions: read-out: Log10 GI50 (converted)
Source text: as §4, §2, §3

[26] = test system: KM12 colon cancer cells; conditions: Homo sapiens, read-out: Log10 GI50 (converted)
Source text: as §4, §2, §3

[27] = test system: DU-145 prostate cancer cells; conditions: read-out: Log10 GI50 (converted)
Source text: as §4, §2, §3

[28] = test system: BT-549 breast cancer cells; conditions: read-out: Log10 GI50 (converted)
Source text: as §4, §2, §3

[29] = test system: MCF7 breast cancer cells; conditions: read-out: Log10 GI50 (converted)
Source text: as §4, §2, §3

[30] = test system: NCI-H522 lung cancer cells; conditions: read-out: Log10 GI50 (converted)
[31] = test system: HCC-2998 colon cancer cells; conditions: Homo sapiens, read-out: Log10 GI50 (converted)
[32] = test system: RXF-393 renal cancer cells; conditions: Homo sapiens, read-out: Log10 GI50 (converted)
[33] = test system: UO-31 renal cancer cells; conditions: read-out: Log10 GI50 (converted)
[34] = test system: T-47D breast cancer cells; conditions: T47D, read-out: Log10 GI50 (converted)
Description: The assay was carried out in 96-well microtiter plates. The MTT assay is based on the production of a dark blue formazan product by dehydrogenase in the mitochondria of live tumor cells after exposure to drug for 6 days [M. C. […] The SRB assay is based on the binding of the anionic group to the basic amino acid residues of cellular proteins after exposure of tumor cells to drug for 2 days [P. Skehan, R. Storeng, D. Scudiero, A. Monks, J. McMahon, D. Vistica, J. T. Warren, H. Bohesch, S. Kenney and M. R. Boyd, J. Nat.

## OCc1cc(-c2ccc(-c3cccs3)s2)sc1CO
[1]
  GI50: 52.5 µM
[2]
  GI50: 28.2 µM
[3]
  GI50: 56.2 µM
[4]
  GI50: 20 µM
[5]
  GI50: 46.8 µM
[6]
  GI50: 229 nM
[7]
  GI50: 20.9 µM
[8]
  GI50: 51.3 µM
[9]
  GI50: 29.5 µM
[10]
  GI50: 5.89 µM
[11]
  GI50: 257 nM
[12]
  GI50: 38.9 µM
[13]
  GI50: 5.62 µM
[14]
  GI50: 18.6 µM
[15]
  GI50: 40.7 µM
[16]
  GI50: 50.1 µM
[17]
  GI50: 33.9 µM
[18]
  GI50: 69.2 µM
[19]
  GI50: 15.1 µM
[20]
  GI50: > 10 µM
[21]
  GI50: 5.37 µM
[22]
  GI50: 49 µM
[23]
  GI50: 39.8 µM
[24]
  GI50: 52.5 µM
[25]
  GI50: 57.5 µM
[26]
  GI50: 16.6 µM
[27]
  GI50: 55 µM
[28]
  GI50: 83.2 µM
[29]
  GI50: 178 nM
[30]
  GI50: 33.9 µM
[31]
  GI50: 316 nM
[32]
  GI50: 8.71 µM
[33]
  GI50: 64.6 µM
[34]
  GI50: 427 nM
